# Experiments:
# Notch pathway = assay: Cignal Finder dual-luciferase pathway reporter, Notch; format: cell-based, human; parameters: key to Relative activity, Notch reporter: firefly/renilla ratio, background (negative control) subtracted; conditions: for Relative activity, Notch reporter: luc/Renluc relative to negative control reporter, single drug at 4 folds vs EH/Ci/Mi combination;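 on digitalized pathway activity, Notch: code −1 means repressed below 0.5-fold of 5637 cells or no-drug control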
# Experimental: (§1) The pathway analysis was performed with Qiagen's Cignal Finder Pathway Reporter Array systems according to the manufacturer's instructions. The pathway-focused dual-luciferase reporter construct was a mixture of an inducible transcription factor responsive firefly luciferase reporter and constitutively expressing renilla construct. Transcriptional response element (TRE) sequence response elements to each specific transcriptional factor triggered by the different signaling pathways are positioned before the TATA box of firefly luciferase reporter gene. The extent of activity of the reporter reflects the level of activity of the particular signaling pathway. CMV controlled renilla expression vector is co-transfected into the cell as an internal control. Non-inducible reporter construct that lacks the transcriptional factor binding sequence and could not be induced by any transcription factors is used as a negative control. Cells transfected with CMV directed firefly luciferase reporter gene serve as a positive control. Briefly, cells seeded in 6-well plates were transfected with Cignal finder pathway arrays according to the manufacturer's instructions (Qiagen). Then cells were seeded onto 96-well plates. Ci (6000 ng/mL), Mi (800 ng/mL), or EH (1000 ng/mL) and Ci/Mi/EH combination (Ci, 1500 ng/mL, Mi, 800 ng/mL and EH, 1000 ng/m L) were then added to the cells 24 h post-transfection. After 6 h of incubation with the different drugs at 37° C., cells were lysed and a dual luciferase assay (for firefly and renilla luciferase) was performed using a PromegaGloMax 20/20 illuminometer. The firefly luciferase activities were normalized over the renilla luciferase activities after background activity determined by luciferase activities of negative controls was subtracted. A triple test of cell survival under these drug doses was also performed by MTT assay following 18 h incubation at 37° C. […]
# SCaBER = assay: MTT cell survival / IC50, SCaBER squamous carcinoma cells; format: cell-based, human
# Experimental: (§2) The clinical grade of the chemotherapeutics (NCI Dictionary of Cancer Terms) was provided by the First Affiliated Hospital of Harbin Medical University: Pirarubicin (Pi, Wanle, Shenzhen), Paclitaxel (Pa, Taiji, Sichuan), Adriamycin (Ad, Pfizer, Jiangsu), Epirubicin Hydrochloride (EH, Haizheng, Zhejiang), Hydroxycamptothecin (Hy, Lishizhen, Hubei), Cisplatin (Ci, Haosen, Jiangsu), Gemcitabine (Ge, Haosen, Jiangsu) and Mitomycin (Mi, Haizheng, Zhejiang). The drug induced cell death was determined by a thiazolyl […] (MTT, 490 nm reading) based cell proliferation assay in the cultured cells following treatment by various concentrations of drugs for 72 hours. The relative chemoresistance to each drug of all cell lines was calculated with the lowest IC50 as a reference. The overall chemoresistance of each cell line was described as “chemoresistance index”, the numerator of the total relative IC50 to all the drugs over the number of drugs to rank the overall resistance state of each cell line to the six chemotherapeutics collectively.
# (§3) The relative IC50 (fold) of each drug of all nine cell lines was normalized to the lowest IC50 in the most sensitive cell line (FIG. 2G), to describe the single drug resistance of cell lines. The overall chemoresistance of each cell line, a “chemoresistance index” (the numerator of the total relative IC50 over the number of drugs) (FIG. 2G) were calculated to rank the overall resistance state of each cell line to this six chemotherapeutics.
# MAPK/ERK pathway = assay: Cignal Finder dual-luciferase pathway reporter, MAPK/ERK; format: cell-based, human; conditions: for Relative activity, MAPK/ERK reporter: luc/Renluc relative to negative control reporter, single drug at 4 folds vs EH/Ci/Mi combination
# Experimental: as §1
# T24 = assay: MTT cell survival / IC50, T24 cells; format: cell-based, human
# Experimental: as §2, §3
# (§4) Twenty six-drug combinations at the indicated doses were initially generated through a random number generator (using MATLAB MathWorks©, Natick, Mass., U.S.) (The upper half of Table 1). The cell survival (% over the not drug control) of treated cells was determined and then used for a calculation of the average cumulative cell survival (%, ACS: the sum of cell survival (%) per combination divided by the number of cell lines tested). ACS<30% was used to separate the effective from the not-effective combinations.
# Biu87 = assay: MTT cell survival / IC50, Biu87 cells; format: cell-based, human
# Experimental: as §2, §3, §4
# SV-HUC-1 = format: cell-based
# Experimental: as §2, §3
# ER Stress pathway = assay: Cignal Finder dual-luciferase pathway reporter, ER Stress; format: cell-based, human; conditions: for Relative activity, ER Stress reporter: luc/Renluc relative to negative control reporter, single drug at 4 folds vs EH/Ci/Mi combination
# Experimental: as §1
# Hypoxia pathway = assay: Cignal Finder dual-luciferase pathway reporter, Hypoxia; format: cell-based, human; parameters: key to Relative activity, Hypoxia reporter: firefly/renilla ratio, background (negative control) subtracted; conditions: for Relative activity, Hypoxia reporter: luc/Renluc relative to negative control reporter, single drug at 4 folds vs EH/Ci/Mi combination
# Experimental: as §1
# [1] = Table S3, ng/ml: Pi 40, Pa 160, EH 250, Ci 1500, Mi 200, 1=Ci/Mi, 2=EH/Ci/Mi, 3=Pa/Ci/Mi, 4=Pi/Ci/Mi
# [2] = ng/ml: EH 1000, Ci 6000, Mi 800, Pi 160, Pa 640, Ge 20, EH/Ci/Mi regimen
compound,measurement,setting,value
"COc1cccc2c1C(=O)c1c(O)c3c(c(O)c1C2=O)C[C@@](O)(C(=O)CO)C[C@@H]3[C@@H]1C[C@H](N)[C@@H](O)[C@H](C)O1 [EH, (8R,10S)-10-((2S,4S,5R,6S)-4-amino-5-hydroxy-6-methyltetrahydro-2H-pyran-2-yl)-6,8,11-trihydroxy-8-(2-hydroxyacetyl)-1-methoxy-7,8,9,10-tetrahydrotetracene-5,12-dione]","relative drug trigged pathway activity over the no-drug level, Notch",Notch pathway; 5637 cells,1.92 fold
same,"Relative activity, Notch reporter",Notch pathway; 5637 cells,1.95
same,"digitalized pathway activity, Notch",Notch pathway; Biu87 cells,0 (null (0) if neither of the above holds)
same,"relative drug trigged pathway activity over the no-drug level, Notch",Notch pathway; Biu87 cells,1.34 fold
same,"Relative activity, Notch reporter",Notch pathway; Biu87 cells,5.94
same,"relative drug trigged pathway activity over the no-drug level, Notch",Notch pathway; H-bc cells,1.6 fold
same,"Relative activity, Notch reporter",Notch pathway; H-bc cells,2.20
same,"digitalized pathway activity, Notch",Notch pathway; SV-HUC-1 cells,0 (null (0) if neither of the above holds)
same,"relative drug trigged pathway activity over the no-drug level, Notch",Notch pathway; SV-HUC-1 cells,1.3 fold
same,"Relative activity, Notch reporter",Notch pathway; SV-HUC-1 cells,5.60
same,"Relative activity, Notch reporter",Notch pathway; UM-UC-3 cells,10.16
same,"relative drug trigged pathway activity over the no-drug level, Notch",Notch pathway; Um-Uc-3 cells,2.05 fold
same,Cell survival (%),SCaBER; [1],38.31%
same,Single drug 4X Cell Survival (%),SCaBER; [2],6.67%
same,"relative drug trigged pathway activity over the no-drug level, MAPK/ERK",MAPK/ERK pathway; 5637 cells,2.26 fold
same,"Relative activity, MAPK/ERK reporter",MAPK/ERK pathway; 5637 cells,117.70
same,"digitalized pathway activity, MAPK/ERK",MAPK/ERK pathway; Biu87 cells,0 (null (0) if neither of the above holds)
same,"relative drug trigged pathway activity over the no-drug level, MAPK/ERK",MAPK/ERK pathway; Biu87 cells,1.24 fold
same,"Relative activity, MAPK/ERK reporter",MAPK/ERK pathway; Biu87 cells,608.33
same,"digitalized pathway activity, MAPK/ERK",MAPK/ERK pathway; H-bc cells,0 (null (0) if neither of the above holds)
same,"relative drug trigged pathway activity over the no-drug level, MAPK/ERK",MAPK/ERK pathway; H-bc cells,0.75 fold
same,"Relative activity, MAPK/ERK reporter",MAPK/ERK pathway; H-bc cells,95.16
same,"digitalized pathway activity, MAPK/ERK",MAPK/ERK pathway; SV-HUC-1 cells,0 (null (0) if neither of the above holds)
same,"relative drug trigged pathway activity over the no-drug level, MAPK/ERK",MAPK/ERK pathway; SV-HUC-1 cells,0.95 fold
same,"Relative activity, MAPK/ERK reporter",MAPK/ERK pathway; SV-HUC-1 cells,225.00
same,"Relative activity, MAPK/ERK reporter",MAPK/ERK pathway; UM-UC-3 cells,183.22
same,"relative drug trigged pathway activity over the no-drug level, MAPK/ERK",MAPK/ERK pathway; Um-Uc-3 cells,1.29 fold
same,Cell survival (%),T24; [1],20.13%
same,Single drug 4X Cell Survival (%),T24; [2],17.79%
same,Cell survival (%),"Biu87; Biu87, Table S3, ng/ml: Pi 40, Pa 160, EH 250, Ci 1500, Mi 200, 1=Ci/Mi, 2=EH/Ci/Mi, 3=Pa/Ci/Mi, 4=Pi/Ci/Mi",38.68%
same,Single drug 4X Cell Survival (%),"Biu87; Biu87, ng/ml: EH 1000, Ci 6000, Mi 800, Pi 160, Pa 640, Ge 20, EH/Ci/Mi regimen",23.24%
same,Cell survival 72 hours,"Biu87; Biu87 cells, Table 4 (A)",23.24%
same,ACS (%),"Biu87; Biu87 cells, Table 4 (B)",23.24%
same,Single drug 4X Cell Survival (%),"SV-HUC-1; SV-HUC-1, ng/ml: EH 1000, Ci 6000, Mi 800, Pi 160, Pa 640, Ge 20, EH/Ci/Mi regimen",61.89%
same,Cell survival 72 hours,"SV-HUC-1; SV-HUC-1 cells, Table 4 (A)",61.89%
same,ACS (%),"SV-HUC-1; SV-HUC-1 cells, Table 4 (B)",61.89%
same,"relative drug trigged pathway activity over the no-drug level, ER Stress",ER Stress pathway; 5637 cells,3.26 fold
same,"Relative activity, ER Stress reporter",ER Stress pathway; 5637 cells,84.76
same,"relative drug trigged pathway activity over the no-drug level, ER Stress",ER Stress pathway; Biu87 cells,1.66 fold
same,"Relative activity, ER Stress reporter",ER Stress pathway; Biu87 cells,36.36
same,"digitalized pathway activity, ER Stress",ER Stress pathway; H-bc cells,0 (null (0) if neither of the above holds)
same,"relative drug trigged pathway activity over the no-drug level, ER Stress",ER Stress pathway; H-bc cells,1.38 fold
same,"Relative activity, ER Stress reporter",ER Stress pathway; H-bc cells,28.61
same,"relative drug trigged pathway activity over the no-drug level, ER Stress",ER Stress pathway; SV-HUC-1 cells,2.93 fold
same,"Relative activity, ER Stress reporter",ER Stress pathway; SV-HUC-1 cells,300.00
same,"digitalized pathway activity, ER Stress",ER Stress pathway; UM-UC-3 cells,0 (null (0) if neither of the above holds)
same,"Relative activity, ER Stress reporter",ER Stress pathway; UM-UC-3 cells,120.98
same,"relative drug trigged pathway activity over the no-drug level, ER Stress",ER Stress pathway; Um-Uc-3 cells,1.48 fold
same,"relative drug trigged pathway activity over the no-drug level, Hypoxia",Hypoxia pathway; 5637 cells,2.27 fold
same,"Relative activity, Hypoxia reporter",Hypoxia pathway; 5637 cells,51.46
same,"relative drug trigged pathway activity over the no-drug level, Hypoxia",Hypoxia pathway; Biu87 cells,2.26 fold
same,"Relative activity, Hypoxia reporter",Hypoxia pathway; Biu87 cells,17.13
same,"relative drug trigged pathway activity over the no-drug level, Hypoxia",Hypoxia pathway; H-bc cells,1.72 fold
same,"Relative activity, Hypoxia reporter",Hypoxia pathway; H-bc cells,57.60
same,"relative drug trigged pathway activity over the no-drug level, Hypoxia",Hypoxia pathway; SV-HUC-1 cells,1.74 fold
same,"Relative activity, Hypoxia reporter",Hypoxia pathway; SV-HUC-1 cells,44.00
same,"digitalized pathway activity, Hypoxia",Hypoxia pathway; UM-UC-3 cells,0 (null (0) if neither of the above holds)
same,"Relative activity, Hypoxia reporter",Hypoxia pathway; UM-UC-3 cells,73.93
same,"relative drug trigged pathway activity over the no-drug level, Hypoxia",Hypoxia pathway; Um-Uc-3 cells,1.18 fold
